# Read-outs that look alike come from different tables or passages of the source.
# How the values were obtained:
# BACE = BACE (Homo sapiens, UniProt P56817); assay: In vitro enzymatic BACE FRET assay; format: biochemical; conditions: average IC50, enzyme assay; read-out: BACE 1 FRET assay
# Protocol: In Vitro Enzymatic BACE FRET (Fluorescence Resonance Energy Transfer) Assay (Enzyme Assay Data in the Example Table I) The assay buffer used in this screen is 0.05 M acetate, pH 4.2, 10% DMSO final, 100 uM genapol (which is a nonionic detergent, below its Critical Micelle Concentration). The beta secretase enzyme (0.2 nM) is pre-incubated for one hour with inhibitors, typically in about 1 uL of DMSO according to a serial dilution, are added thereto. This assay is effectively started by the addition of FRET substrate (50 nM) and the combination is incubated for one hour. The FRET assay is terminated with by addition of Tris buffer, which raises the pH to neutrality, and the fluorescence is determined. The FRET substrate is a peptide with commercially available fluorophore and quencher, on opposite sides of the BACE cleavage site. Proteolytic cleavage of the FRET substrate releases quenching of fluorescence (excitation 488 nm and emission […]).
# Aβ40 = assay: In vitro BACE cell-based assay (Aβ40 sandwich ELISA, cells stably expressing APP)
# Protocol: In Vitro BACE Cell-Based Assay […] Cells stably expressing Amyloid Precursor Protein (APP) were plated at a density of 40K cells/well in 96 well plates (Costar). The cells were cultivated for 24 hours at 37° C. and 5% CO2 in DMEM supplemented with 10% FBS. The test compounds were then added to cells in 10-point dose response concentrations with the starting concentration being either 100 μM or 10 μM. The compounds were diluted from stock solutions in DMSO and the final DMSO concentration of the test compounds on cells was 0.1%. […] The IC50 of the compound was calculated from the percent of control or percent inhibition of Aβ40 as a function of the concentration of the test compound. The sandwich ELISA to detect Aβ40 was performed in 96 well microtiter plates, which were pre-treated with goat anti-rabbit IgG (Pierce). […] The optimal concentration for the pAb40 antibody was 3 μg/ml in Superblock/TBS (Pierce) that was supplemented with 0.05% Tween 20 (Sigma). […] Cellular supernatants were incubated with the capture antibody for 3 h at 4° C., followed by 3 wash steps in TBS-tween (0.05%). The detecting antibody incubation was for 2 h at 4° C., again followed by the wash steps as described previously. The final readout of the ELISA is Time-Resolved Fluorescence (counts per minute) using Delfia reagents Streptavidin-Europium and Enhancement solutions (Perkin Elmer) and the Victor 2 multilabel counter (Perkin Elmer).
# [1] = Homo sapiens, HEK293, average IC50, read-out: HEK cell assay
# [2] = Homo sapiens, HEK293, average IC50, cell assay, HEK cells
# BACE, sequence (P56817 46-501, species assumed): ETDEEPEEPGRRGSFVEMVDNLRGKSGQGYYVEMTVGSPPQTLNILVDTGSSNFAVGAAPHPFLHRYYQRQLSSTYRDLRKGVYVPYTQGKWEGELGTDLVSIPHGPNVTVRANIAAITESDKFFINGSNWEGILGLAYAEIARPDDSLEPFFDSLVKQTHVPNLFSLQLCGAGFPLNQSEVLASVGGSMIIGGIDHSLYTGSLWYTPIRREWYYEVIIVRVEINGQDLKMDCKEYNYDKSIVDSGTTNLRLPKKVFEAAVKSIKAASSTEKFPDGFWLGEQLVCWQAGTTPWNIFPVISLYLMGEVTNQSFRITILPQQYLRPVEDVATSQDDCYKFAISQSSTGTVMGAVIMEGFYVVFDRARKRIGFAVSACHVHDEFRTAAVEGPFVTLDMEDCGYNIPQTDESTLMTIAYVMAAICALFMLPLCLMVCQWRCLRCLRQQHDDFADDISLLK
SMILES,IC50 (BACE),IC50 (Aβ40; [1]),IC50 (Aβ40; [2]),"IC50 (Aβ40; average IC50, read-out: HEK cell assay)"
NC1=N[C@@]2(CCS1)c1cc(-c3cccnc3F)ccc1Oc1cnc(Cl)cc12 [compound 199],90.8 nM,392 nM,–,–
"NC1=N[C@@]2(CO[C@H]1C1CCCCC1)c1cc(-c3cccnc3F)ccc1Oc1cnc(Cl)cc12 (racemic) [Example 56A, (3′S,6′S)-3-chloro-6′-cyclohexyl-7-(2-fluoropyridin-3-yl)-2′,6′-dihydrospiro[chromeno[2,3-c]pyridine-5,3′-[1,4]oxazin]-5′-amine]",30.7 nM,138 nM,–,–
NC1=N[C@]2(CCO1)c1cc(-c3cccnc3F)ccc1Oc1cnc(-c3cncc(F)c3)cc12 [compound 152],238 nM,–,108 nM,–
NC1=N[C@]2(CCO1)c1cc(-c3cccnc3F)ccc1Oc1c(F)cc(-c3cccnc3)cc12 [compound 167],147 nM,110 nM,–,–
NC1=N[C@]2(COC1)c1cc(C3=CCCOC3)ccc1Oc1ccc(-c3cccnc3F)cc12 [compound 130],0.7 nM,–,12.2 nM,–
NC1=N[C@]2(CCO1)c1cc(-c3cccnc3F)ccc1Oc1c(F)cc(N3CCOCC3)cc12 [compound 179],5190 nM,2820 nM,–,–
NC1=NC2(CCO1)c1cc(-c3cccnc3)ccc1Oc1cnc(C3=CCOCC3)cc12 (stereo not shown) [compound 151],7.3 nM,–,3.4 nM,–
NC1=N[C@@]2(CCO1)c1cc(-c3cccnc3F)ccc1Oc1cnc(-c3cccnc3)cc12 [compound 148],4.6 nM,–,4.1 nM,–
NC1=N[C@@]2(CCS1)c1cc(-c3cccnc3F)ccc1Oc1cnc(C3=CCOCC3)cc12 [compound 193],3.3 nM,4.7 nM,–,–
N#Cc1cccc(-c2ccc3c(c2)[C@@]2(CCOC(N)=N2)c2cc(C4=CCOCC4)nc(F)c2O3)c1 [compound 234],0.7 nM,0.7 nM,–,–
CC(C)COc1cc2c(cn1)Oc1ccc(-c3cncc(F)c3)cc1[C@@]21COCC(N)=N1 [compound 254],0.5 nM,0.9 nM,–,–
NC1=N[C@]2(CCO1)c1cc(-c3cccnc3F)ccc1Oc1c2cc(-c2cccnc2)nc1F [compound 227],489 nM,101 nM,–,–
CC(C)(F)COc1cc(F)c2c(c1)[C@@]1(CCSC(N)=N1)c1cc(-c3cccnc3F)ccc1O2 [compound 202],863 nM,2430 nM,–,–
NC1=N[C@@]2(COC1)c1cc(-c3cc(Cl)ccc3F)ccc1Oc1ncc(N3CC[C@@H](F)C3)cc12 [compound 92],0.6 nM,–,1.9 nM,–
"CC1(COc2cc(F)c3c(c2)[C@]2(COCC(N)=N2)c2cc(N4CCC(F)(F)CC4)ccc2O3)COC1 [Example 46, (S)-7′-(4,4-difluoropiperidin-1-yl)-4′-fluoro-2′-((3-methyloxetan-3-yl)methoxy)-2,6-dihydrospiro[[1,4]oxazine-3,9′-xanthen]-5-amine]",9.4 nM,32.1 nM,–,–
NC1=N[C@@]2(CCS1)c1cc(-c3cccnc3F)ccc1Oc1cnc(-c3ccnc(F)c3)cc12 [compound 188],2.6 nM,11.1 nM,–,–

# More lines, now with the values ahead:
IC50 (BACE),IC50 (Aβ40; [1]),IC50 (Aβ40; [2]),"IC50 (Aβ40; average IC50, read-out: HEK cell assay)",SMILES
152 nM,206 nM,–,–,NC1=N[C@]2(CCO1)c1cc(-c3cccnc3)ccc1Oc1c2cc(-c2ccnc(F)c2)nc1F [compound 240]
293 nM,171 nM,–,–,NC1=N[C@]2(CCO1)c1cc(-c3cccnc3F)ccc1Oc1c2cc(C2=CCCOC2)nc1F [compound 238]
0.7 nM,–,0.9 nM,–,"NC1=N[C@@]2(COC1)c1cc(-c3cccnc3F)ccc1Oc1cnc(C3CCOCC3)cc12 [Example 34, (S)-7-(2-fluoropyridin-3-yl)-3-(tetrahydro-2H-pyran-4-yl)-2′,6′-dihydrospiro[chromeno[2,3-c]pyridine-5,3′-[1,4]oxazin]-5′-amine]"
49.8 nM,119 nM,–,–,COc1nc(-c2cccnc2)cc2c1Oc1ccc(-c3cccnc3F)cc1C21CCOC(N)=N1 (stereo not shown) [compound 221]
3.7 nM,3.2 nM,–,–,NC1=N[C@@]2(COC1)c1cc(-c3cc(F)ccc3F)ccc1Oc1ncc(C3CCOCC3)cc12 [compound 215]
11.6 nM,21.7 nM,–,–,NC1=N[C@@]2(CCO1)c1cc(-c3cccnc3F)ccc1Oc1ncc(C3=CCCOC3)cc12 [compound 268]
1370 nM,1160 nM,–,–,CC(C)(F)COc1cc(F)c2c(c1)[C@@]1(CCOC(N)=N1)c1cc(-c3cccnc3F)ccc1O2 [compound 181]
1.2 nM,4 nM,–,–,CC(C)Oc1cc2c(cn1)Oc1ccc(-c3cccnc3F)cc1[C@@]21COCC(N)=N1 [compound 259]
0.4 nM,–,2.4 nM,–,"NC1=N[C@@]2(COC1)c1cc(-c3cccnc3F)ccc1Oc1c(F)cc(C3CCOCC3)cc12 [Example 42, (S)-4′-fluoro-7′-(2-fluoropyridin-3-yl)-2′-(tetrahydro-2H-pyran-4-yl)-2,6-dihydrospiro[[1,4]oxazine-3,9′-xanthen]-5-amine]"
0.6 nM,–,0.6 nM,–,NC1=N[C@@]2(CCO1)c1cc(-c3cccnc3F)ccc1Oc1c2cc(C2=CCOCC2)nc1F [compound 108]
2.5 nM,4.8 nM,–,–,"CC(C)(C)COc1cnc2c(c1)[C@]1(CCOC(N)=N1)c1cc(-c3cccnc3F)ccc1O2 [Example 62, (S)-7-(2-fluoropyridin-3-yl)-3-(neopentyloxy)-5′,6′-dihydrospiro[chromeno[2,3-b]pyridine-5,4′-[1,3]oxazin]-2′-amine]"
0.5 nM,–,1.5 nM,–,"CC#Cc1cncc(-c2ccc3c(c2)[C@@]2(COCC(N)=N2)c2cc(C4=CCCOC4)cc(F)c2O3)c1 [Example 66, (S)-2′-(5,6-dihydro-2H-pyran-3-yl)-4′-fluoro-7′-(5-(prop-1-ynyl)pyridin-3-yl)-2,6-dihydrospiro[[1,4]oxazine-3,9′-xanthen]-5-amine]"
1130 nM,–,1140 nM,–,COc1ccc2c(c1)C1(CCSC(N)=N1)c1cc(-c3cncnc3)ccc1O2 (stereo not shown) [compound 137]
1 nM,1.5 nM,–,–,CCOc1cc2c(cn1)Oc1ccc(-c3cncc(Cl)c3)cc1[C@@]21COCC(N)=N1 [compound 253]
3.2 nM,6.1 nM,–,–,CC(C)(C)C#Cc1ccc2c(c1)[C@@]1(COCC(N)=N1)c1cc(C3=CCOCC3)cnc1O2 [compound 214]
0.4 nM,0.1 nM,–,–,NC1=N[C@@]2(COC1)c1cc(-c3cccnc3)ccc1Oc1c2cc(C2=CCCOC2)nc1F [compound 246]
140 nM,–,628 nM,–,NC1=N[C@]2(COC1)c1cc(-c3cccnc3F)ccc1Oc1c(F)cc(-c3ccnc(F)c3)cc12 [36B]
0.5 nM,–,1.9 nM,–,"NC1=N[C@@]2(COC1)c1cc(-c3cccnc3F)ccc1Oc1c(F)cc(N3CCOCC3)cc12 [Example 35A, (S)-4′-fluoro-7′-(2-fluoropyridin-3-yl)-2′-morpholino-2,6-dihydrospiro[[1,4]oxazine-3,9′-xanthen]-5-amine]"
0.3 nM,–,0.4 nM,–,NC1=N[C@@]2(COC1)c1cc(-c3cncnc3)ccc1Oc1c(F)cc(C3=CCCOC3)cc12 [compound 133]
0.5 nM,1 nM,–,–,CC(C)COc1cc2c(cn1)Oc1ccc(-c3cccnc3F)cc1[C@@]21COCC(N)=N1 [compound 255]
88.3 nM,–,–,134 nM,NC1=N[C@@]2(CO[C@@H]1c1ccccc1)c1cc(-c3cccnc3F)ccc1Oc1cnc(Cl)cc12 [compound 208]
52.4 nM,–,268 nM,–,NC1=N[C@]2(COC1)c1cc(-c3cccnc3F)ccc1Oc1cnc(-c3ccnc(F)c3)cc12 [compound 70]

# Reference: patent publication US9012446B2, “Amino-oxazines and amino-dihydrothiazine compounds as beta-secretase modulators and methods of use” (Amgen Inc., priority 2010, dated 2015)
